Reference: patent publication US7736624B2, “Methods and compositions for diagnostic and therapeutic targeting of COX-2” (priority 2006, dated 2010)
Read-outs that look alike come from different tables or passages of the source.

Key:
[1] = molecular target: T1, COX-2 (Homo sapiens, UniProt P35354); assay: IC50 determinations using purified enzymes (TLC assay), COX-2; type: biochemical; set-up: made in house; host or cells: Sf9 insect cells
T1 sequence (P35354 18-604): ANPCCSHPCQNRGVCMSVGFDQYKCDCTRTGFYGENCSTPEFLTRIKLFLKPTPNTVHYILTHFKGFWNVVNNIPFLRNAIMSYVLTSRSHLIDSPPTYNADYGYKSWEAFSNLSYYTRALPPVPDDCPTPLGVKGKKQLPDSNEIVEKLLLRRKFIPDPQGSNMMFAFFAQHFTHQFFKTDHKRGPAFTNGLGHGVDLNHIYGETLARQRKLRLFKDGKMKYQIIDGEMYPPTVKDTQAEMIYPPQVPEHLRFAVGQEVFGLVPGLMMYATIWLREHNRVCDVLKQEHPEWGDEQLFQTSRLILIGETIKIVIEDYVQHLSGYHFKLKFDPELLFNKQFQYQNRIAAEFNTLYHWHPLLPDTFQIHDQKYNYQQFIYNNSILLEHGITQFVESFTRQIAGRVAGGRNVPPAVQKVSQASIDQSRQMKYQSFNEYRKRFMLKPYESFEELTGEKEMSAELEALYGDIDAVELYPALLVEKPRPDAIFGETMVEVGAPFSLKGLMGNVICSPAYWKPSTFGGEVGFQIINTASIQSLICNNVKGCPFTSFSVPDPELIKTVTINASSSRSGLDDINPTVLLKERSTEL
Description: (§1) Those skilled in the art will appreciate that an evaluation of the selectivity and efficacy of binding of the NSAID derivative to the COX-2 enzyme, e.g., after the derivative is synthesized, can be desirable. […] One example of an in vitro screening method takes advantage of the fact that both human and murine recombinant COX-2 can be expressed and isolated in pure form from an Sf9 cell expression system. […] Alternatively, membrane preparations from outdated human platelets can provide a source of human COX-1. […] The reaction is stopped by the addition of ethanol/methanol/1 M citrate, pH 4.0 (30:4:1). The extracted products are separated by thin layer chromatography (TLC), which allows quantitation of total product formation as well as assessment of product distribution. This assay is useful to define IC50 values for inhibition of either enzyme, and to determine time-dependency of inhibition. It also provides information concerning changes in products formed as a result of inhibition.
(§2) Reactions were terminated by solvent extraction in Et2O/CH3OH/1 M citrate, pH 4.0 (30:4:1). The phases were separated by centrifugation at 2000 g for 5 minutes and the organic phase was spotted on a 20×20 cm TLC plate (Lieselgel 60, EMD Chemicals, Inc., Gibbstown, N.J., United States of America). The plate was developed in EtOAc/CH2Cl2/glacial AcOH (75:25:1) at 4° C. Radiolabeled prostanoid products were quantitatively determined with a radioactivity scanner available from Bioscan, Inc. (Washington, D.C., United States of America). The percentage of total products observed at different concentrations of the presently disclosed compositions was divided by the percentage of products observed for protein samples preincubated for the same amount of time with DMSO.

[2] = molecular target: T2, ovine COX-1 (Ovis aries, UniProt P05979); assay: IC50 determinations using purified enzymes (TLC assay), COX-1; type: biochemical; details: assayed against purified enzymes
T2 construct: can be purified from ovine seminal vesicles by standard procedures; from tissue; host or cells: ovine seminal vesicles
T2 sequence (P05979 25-600): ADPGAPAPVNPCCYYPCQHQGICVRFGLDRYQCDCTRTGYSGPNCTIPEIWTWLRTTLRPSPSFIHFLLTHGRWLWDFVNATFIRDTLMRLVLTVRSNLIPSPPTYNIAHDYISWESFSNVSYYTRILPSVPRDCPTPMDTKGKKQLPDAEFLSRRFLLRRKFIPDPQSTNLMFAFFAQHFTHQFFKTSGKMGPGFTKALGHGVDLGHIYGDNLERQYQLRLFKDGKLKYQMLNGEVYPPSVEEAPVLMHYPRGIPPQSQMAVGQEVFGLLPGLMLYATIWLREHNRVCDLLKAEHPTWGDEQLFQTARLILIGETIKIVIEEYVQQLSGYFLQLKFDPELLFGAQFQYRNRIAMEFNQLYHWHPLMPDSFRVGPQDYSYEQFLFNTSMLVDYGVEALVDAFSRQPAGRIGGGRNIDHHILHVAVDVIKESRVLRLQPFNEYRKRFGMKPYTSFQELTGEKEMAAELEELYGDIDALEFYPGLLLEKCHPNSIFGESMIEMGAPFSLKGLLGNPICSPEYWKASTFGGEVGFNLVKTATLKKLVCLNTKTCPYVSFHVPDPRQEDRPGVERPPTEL
Description: as §1, §2

[3] = Table 3, assayed against purified enzymes, read-out: IC50 COX-2
[4] = purified enzyme, read-out: COX-2 IC50
[5] = Table 2, assayed against purified enzymes, read-out: IC50 COX-2

SMILES	IC50 [1, 3] [µM]	IC50 ([2]; Table 3) [µM]	other results
COc1ccc2c(c1)c(CC(=O)NCCCNC(=O)c1cc3ccccc3oc1=O)c(C)n2C(=O)c1ccc(Cl)cc1 [Compound 27ee]	0.6	> 25	–
COc1ccc2c(c1)c(CC(=O)NCCCNC(=S)Nc1ccc(-c3c4ccc(=O)cc-4oc4cc(O)ccc34)c(C(=O)O)c1)c(C)n2C(=O)c1ccc(Cl)cc1 [Compound 27kk]	> 25	> 25	–
COc1ccc2c(c1)c(CC(=O)NCCCCOC(=O)CCC(=O)O[C@H]1c3cc4c(cc3[C@@H](c3cc(OC)c(OC)c(OC)c3)[C@H]3C(=O)OC[C@@H]31)OCO4)c(C)n2C(=O)c1ccc(Cl)cc1 [Compound 27p]	–	–	IC50 [1, 4]: 0.147 µM; IC50 ([2]; Table 1): > 4 µM
CCN(CC)c1ccc2cc(C(=O)NCCCCNC(=O)Cc3c(C)n(C(=O)c4ccc(Cl)cc4)c4ccc(OC)cc34)c(=O)oc2c1 [Compound 27ff]	0.031	> 25	–
CCN(CC)c1ccc2c(-c3ccc(S(=O)(=O)NCCCCNC(=O)Cc4c(C)n(C(=O)c5ccc(Cl)cc5)c5ccc(OC)cc45)cc3S(=O)(=O)[O-])c3ccc(=[N+](CC)CC)cc-3oc2c1 [Compound 27lll]	> 25	> 25	–
COc1ccc2c(c1)c(CC(=O)NCCNC(=O)/C=C(C)/C=C/C=C(C)/C=C/C1=C(C)CCCC1(C)C)c(C)n2C(=O)c1ccc(Cl)cc1 [Compound 27h]	–	–	IC50 [1, 4]: 0.107 µM; IC50 ([2]; Table 1): > 4 µM
Cc1ccc(-c2cc(C(=O)O)nn2-c2ccc(S(N)(=O)=O)cc2)cc1 [Compound 30d]	–	–	IC50 [1, 5]: > 25 µM; IC50 ([2]; Table 2): > 25 µM
COc1ccc2c(c1)c(CC(=O)N1CCN(C(=O)c3ccc(C4=c5cc6c7c(c5Oc5c4cc4c8c5CCCN8CCC4)CCC[N+]=7CCC6)c(C(=O)[O-])c3)CC1)c(C)n2C(=O)c1ccc(Cl)cc1 [Compound 27hhh]	1.3	5.8	–
COc1ccc2c(c1)c(CC(=O)NCCNC(=O)c1ccc(C3=c4cc5c6c(c4Oc4c3cc3c7c4CCCN7CCC3)CCC[N+]=6CCC5)c(C(=O)[O-])c1)c(C)n2C(=O)c1ccc(Cl)cc1 [Compound 27ggg]	2.8	0.5	–
COc1ccc2c(c1)c(CC(=O)NCCCNC(=O)c1ccc(C(=O)[O-])c(-c3c4ccc(=[N+](C)C)cc-4oc4cc(N(C)C)ccc34)c1)c(C)n2C(=O)c1ccc(Cl)cc1 [Compound 27aaa]	3.9	> 25	–
CCCCNC(=O)Cc1c(C)n(C(=O)c2ccc(Cl)cc2)c2ccc(OC)cc12 [Compound 27nnn]	> 25	> 25	–
COc1ccc2c(c1)c(CC(=O)N1CCN(C(=O)c3ccc(C(=O)[O-])c(C4=c5cc6c7c(c5Oc5c4cc4c8c5CCCN8CCC4)CCC[N+]=7CCC6)c3)CC1)c(C)n2C(=O)c1ccc(Cl)cc1 [Compound 27fff]	> 25	> 25	–
CCN(CC)c1ccc2cc(C(=O)NCCCNC(=O)Cc3c(C)n(C(=O)c4ccc(Cl)cc4)c4ccc(OC)cc34)c(=O)oc2c1 [Compound 27gg]	0.053	> 25	–
COc1ccc2c(c1)c(CC(=O)OCCN1CCN(CCCN3c4ccccc4Sc4ccc(Cl)cc43)CC1)c(C)n2C(=O)c1ccc(Cl)cc1 [Compound 27v]	–	–	IC50 [1, 5]: 0.387 µM; IC50 ([2]; Table 2): > 25 µM
COc1ccc2c(c1)c(CC(=O)NCCNC(=S)Nc1ccc(-c3c4ccc(=O)cc-4oc4cc(O)ccc34)c(C(=O)O)c1)c(C)n2C(=O)c1ccc(Cl)cc1 [Compound 27jj]	> 25	5.35	–
COc1ccc2c(c1)c(CC(=O)NCCNC(=O)/C=C(C)/C=C/C=C(C)\C=C\C1=C(C)CCCC1(C)C)c(C)n2C(=O)c1ccc(Cl)cc1 [Compound 27s]	–	–	IC50 [1, 5]: 0.388 µM; IC50 ([2]; Table 2): > 25 µM
COc1ccc2c(c1)c(CC(=O)NCCCNS(=O)(=O)c1ccc(/N=N/c3ccc(N(C)C)cc3)cc1)c(C)n2C(=O)c1ccc(Cl)cc1 [Compound 27bb]	0.134	0.214	–
COc1ccc2c(c1)c(CC(=O)NCCCCNC(=O)c1ccc(C(=O)[O-])c(-c3c4ccc(=[N+](C)C)cc-4oc4cc(N(C)C)ccc34)c1)c(C)n2C(=O)c1ccc(Cl)cc1 [Compound 27xx]	> 25	> 25	–
Cc1ccc(-c2cc(C(=O)O)nn2-c2ccc(S(C)(=O)=O)cc2)cc1 [Compound 29d]	–	–	IC50 [1, 5]: > 25 µM; IC50 ([2]; Table 2): > 25 µM
COSc1ccc(-n2nc(C(=O)OC)cc2-c2ccc(C)cc2)cc1 [Compound 29c]	–	–	IC50 [1, 5]: > 25 µM; IC50 ([2]; Table 2): > 25 µM
COc1ccc2c(c1)c(CC(=O)NCCCCNC(=S)Nc1ccc(-c3c4ccc(=O)cc-4oc4cc(O)ccc34)c(C(=O)O)c1)c(C)n2C(=O)c1ccc(Cl)cc1 [Compound 27ll]	3.1	> 25	–
COc1ccc2c(c1)c(CC(=O)NCCCCNC(=O)CCCCCNC(=O)c1ccc(-c3c4ccc(=O)cc-4oc4cc(O)ccc34)c(C(=O)O)c1)c(C)n2C(=O)c1ccc(Cl)cc1 [Compound 27oo]	> 25	> 25	–
COc1ccc2c(c1)c(CC(=O)N1CCNCC1)c(C)n2C(=O)c1ccc(Cl)cc1 [Compound 27ddd]	> 25	1.8	–
COc1ccc2c(c1)c(CC(=O)NCCCCNC(=O)c1ccc(-c3c4ccc(=O)cc-4oc4cc(O)ccc34)c(C(=O)O)c1)c(C)n2C(=O)c1ccc(Cl)cc1 [Compound 27pp]	> 25	> 25	–
COC(=O)c1cc(-c2ccc(C)cc2)n(-c2ccc(S(=O)(=O)N(C)C)cc2)n1 [Compound 31]	–	–	IC50 [1, 5]: > 25 µM; IC50 ([2]; Table 2): > 25 µM
Cc1ccc(-c2cc(CCC(=O)O)nn2-c2ccc(S(C)(=O)=O)cc2)cc1 [Compound 29e]	–	–	IC50 [1, 5]: > 25 µM
COc1ccc2c(c1)c(CC(=O)Nc1ccc(S(=O)(=O)Nc3cc(OC)nc(OC)n3)cc1)c(C)n2C(=O)c1ccc(Cl)cc1 [Compound 27u]	–	–	IC50 [1, 5]: 0.148 µM

Now from value to compound, other results behind:

IC50 [1, 3] [µM]	IC50 ([2]; Table 3) [µM]	SMILES	other results
> 25	> 25	COc1ccc2c(c1)c(CCNC(=O)c1cc3ccccc3oc1=O)c(C)n2Cc1ccc(Br)cc1 [Compound 28b]	–
> 25	> 25	COc1ccc2c(c1)c(CC(=O)NCCCNC(=O)c1ccc(C(=O)[O-])c(C3=c4cc5c6c(c4Oc4c3cc3c7c4CCCN7CCC3)CCC[N+]=6CCC5)c1)c(C)n2C(=O)c1ccc(Cl)cc1 [Compound 27yy]	–
> 25	> 25	COc1ccc2c(c1)c(CCNC(=O)Cc1ccc(Nc3ccc([N+](=O)[O-])c4nonc34)cc1)c(C)n2Cc1ccc(Br)cc1 [Compound 28c]	–
> 25	> 25	CC[N+](CC)=c1ccc2nc3c(cc(NC(=O)CCc4cc(-c5ccc(C)cc5)n(-c5ccc(S(C)(=O)=O)cc5)n4)c4ccccc43)oc-2c1 [Compound 29g]	–
> 25	> 25	Cc1ccc(C(=O)N2CCN(C(=O)c3ccc(C4=c5cc6c7c(c5Oc5c4cc4c8c5CCCN8CCC4)CCC[N+]=7CCC6)c(C(=O)[O-])c3)CC2)cc1 [Compound 32]	–
> 25	> 25	COc1ccc2c(c1)c(CC(=O)NCCCCCNC(=O)c1ccc(C(=O)[O-])c(C3=c4cc5c6c(c4Oc4c3cc3c7c4CCCN7CCC3)CCC[N+]=6CCC5)c1)c(C)n2C(=O)c1ccc(Cl)cc1 [Compound 27zz]	–
